Values of other authors as cited in patent publication US9376364B2, “Acid/salt separation” (PURAC BIOCHEM B.V., priority 2011, dated 2016).

Settings: at 20 Celsius

[Cl-].[Cl-].[Mg+2] [MgCl2, magnesium chloride]
saturation point of MgCl2 in water: 55 g/100 g water
